Results published in patent publication EP0747380B1, “Compounds and compositions with nitrogen-containing non-basic side chains” (ELI LILLY AND COMPANY, priority 1995, dated 1996).
Several values for one entry are separate records, joined by “and”; a condition that tells them apart may be missing. Equal values may be shown once. Read-outs that look alike come from different tables or passages of the source. Marks after values point to notes of the source that are not given here.

How the values were obtained:
[1] = tested on: MCF-7 breast adenocarcinoma cells; assay: MCF-7 proliferation assay (tritiated thymidine incorporation); format: cell-based; details: Homo sapiens, MCF7; MCF-7 cells, 48 hours with drug, tritiated thymidine pulse 4 hours; read-out: ED50 (the source's name)
Procedure: MCF-7 breast adenocarcinoma cells (ATCC HTB 22) were maintained in MEM (minimal essential medium, phenol red-free, Sigma, St. Louis, MO) supplemented with 10% fetal bovine serum (FBS) (V/V), L-glutamine (2 mM), sodium pyruvate (1 mM), HEPES {(N-[2-hydroxyethyl]piperazine-N'-[2-ethanesulfonic acid]10 mM}, non-essential amino acids and bovine insulin (1 µg/ml) (maintenance medium). Ten days prior to assay, MCF-7 cells were switched to maintenance medium supplemented with 10% dextrancoated charcoal stripped fetal bovine serum (DCC-FBS) assay medium) in place of 10% FBS to deplete internal stores of steroids. MCF-7 cells were removed from maintenance flasks using cell dissociation medium (Ca++/Mg++ free HBSS (phenol red-free) supplemented with 10 mM HEPES and 2 mM EDTA). Cells were washed twice with assay medium and adjusted to 80,000 cells/ml. […] Serial dilutions of drugs or DMSO as a diluent control were prepared in assay medium and […] to triplicate microcultures followed by 50 ml assay medium for a final volume of […]. After an additional 48 hours at 37° C in a 5% CO2 humidified incubator, microcultures were pulsed with tritiated thymidine (1 uCi/well) for 4 hours. Cultures were terminated by freezing at -70° C for 24 hours followed by thawing and harvesting of microcultures. Samples were counted by liquid scintillation.

serum cholesterol = assay: Serum cholesterol analysis, OVX rat, four day dosing regimen; format: in vivo, female Sprague Dawley rats; details: for inhibition in vivo at 0.1 mg/kg / inhibition in vivo at 1 mg/kg / inhibition in vivo at 10 mg/kg: Rattus norvegicus, 96 h, read-out: Serum Cholesterol (% dec. OVX); for inhibition in vivo at 0.1 mg/kg / inhibition in vivo at 1 mg/kg / inhibition in vivo at 10 mg/kg / Serum Cholesterol (% dec. OVX): oral, daily for 4 days, OVX rats, * = significantly different than OVX control
Procedure: (§1) Animals were dosed daily for 4 days. […] A blood sample was collected by cardiac puncture.
Blood samples were allowed to clot at room temperature for 2 hours, and serum was obtained following centrifugation for 10 minutes at 3000 rpm. Serum cholesterol was determined using a Boehringer Mannheim Diagnostics high performance cholesterol assay. Briefly the cholesterol was oxidized to cholest-4-en-3-one and hydrogen peroxide. The hydrogen peroxide was then reacted with phenol and 4-aminophenazone in the presence of peroxidase to produce a p-quinone imine dye, which was read spectrophotemetrically at 500 nm. Cholesterol concentration was then calculated against a standard curve. The entire assay was automated using a Biomek Automated Workstation.

uterus = assay: Uterine wet weight, post-menopausal (OVX) rat model, four day dosing regimen; format: in vivo, female Sprague Dawley rats; details: for Uterine Weight (% inc. OVX): oral, daily for 4 days, OVX rats, * = significantly different than OVX control
Procedure: In the examples illustrating the methods, a post-menopausal model was used in which effects of different treatments upon various biological parameters were determined, including serum cholesterol concentration, uterine weight, eosinophil peroxidase activity, MCF-7 cell proliferation, and bone density.
as §1

[2] = tested on: eosinophil peroxidase activity; assay: Uterine eosinophil peroxidase (EPO) assay, OVX rat, four day dosing regimen; details: for Uterine EPO (Vmax): oral, daily for 4 days, OVX rats, * = significantly different than OVX control
Excerpt: (§2) Seventy-five day old female Sprague Dawley rats (weight range of 200 to 225 g) were obtained from Charles River Laboratories (Portage, MI). The animals were either bilaterally ovariectomized (OVX) or exposed to a sham surgical procedure (Intact) at Charles River Laboratories, and then shipped after one week. Upon arrival, they were housed in metal hanging cages in groups of 3 or 4 per cage and had ad libitum access to food (calcium content approximately 0.5%) and water for one week. […] The photoperiod in the room was 12 hours light and 12 hours dark.
(§3) After a one week acclimation period (therefore, two weeks post-OVX), daily dosing with test compound was initiated. 17α-Ethynyl estradiol (EE2) (Sigma Chemical Co., St. Louis, MO), an orally available form of estrogen, or the test compound were given orally, unless otherwise stated, as a suspension in 1% carboxymethyl cellulose or dissolved in 20% cyclodextrin. Animals were dosed daily for 4 days. Following the dosing regimen, animals were weighed and anesthetized with a ketamine:xylazine (2:1, v:v) mixture. A blood sample was collected by cardiac puncture. The animals were then sacrificed by asphyxiation with CO2, the uterus was removed through a midline incision, and a wet uterine weight was determined.
(§4) Uteri were kept at 4° C until time of enzymatic analysis. The uteri were then homogenized in 50 volumes of 50 mM Tris buffer (pH - 8.0) containing 0.005% Triton X-100. Upon addition of 0.01% hydrogen peroxide and 10 mM o-phenylenediamine (final concentrations) in Tris buffer, increase in absorbance was monitored for one minute at 450 nm. […] The maximal velocity of a 15 second interval was determined over the initial, linear portion of the reaction curve.

[3] = tested on: eosinophil peroxidase activity; details: rat, in vivo, po
Excerpt: as §2, §3, §4

tibia density = assay: Bone density assay, OVX rat, thirty-five day dosing regimen (single photon absorptiometry of tibia); format: in vivo, female Sprague Dawley rats; details: OVX rats, oral, daily for 35 days, in 20% hydroxypropyl β-cyclodextrin
Procedure: Following the General Preparation procedure described above, the rats were treated daily for 35 days (6 rats per treatment group) and sacrificed by decapitation on the 36th day. The 35 day time period was sufficient to allow maximal effect on bone density, measured as described herein. At the time of sacrifice, the uteri were removed, dissected free of extraneous tissue, and the fluid contents were expelled before determination of wet weight in order to confirm estrogen deficiency associated with complete ovariectomy. […] The uteri were then placed in 10% neutral buffered formalin to allow for subsequent histological analysis.
The right tibias were excised and scanned at the distal metaphysis 1 mm from the patellar groove with single photon absorptiometry. Results of the densitometer measurements represent a calculation of bone density as a function of the bone mineral content and bone width.
In accordance with the procedures outlined above, compounds of the present invention and EE2 in 20% hydroxypropyl β-cyclodextrin were orally administered to test animals.

Structure (SMILES) | EC50 [1] | inhibition in vivo at 0.1 mg/kg (serum cholesterol; Dose 0.1 mg/kg) | inhibition in vivo at 1 mg/kg (serum cholesterol; Dose 1 mg/kg) | inhibition in vivo at 10 mg/kg (serum cholesterol; Dose 10 mg/kg) | Uterine Weight (% inc. OVX) (uterus; Dose 0.1 mg/kg) | Uterine Weight (% inc. OVX) (uterus; Dose 1 mg/kg) | Uterine Weight (% inc. OVX) (uterus; Dose 10 mg/kg) | Uterine EPO (Vmax) ([2]; Dose 0.1 mg/kg) | Uterine EPO (Vmax) ([2]; Dose 1 mg/kg) | Uterine EPO (Vmax) ([2]; Dose 10 mg/kg) | other results
O=C(c1ccc(OCCN2CCCCC2=O)cc1)c1c(-c2ccc(O)cc2)sc2cc(O)ccc12 [Compound 3] | 600 nM | 38.1% | 45.8% | 72.4% | 13.3% | 17.8% | 57.6* % | 8.0 | 7.8 | 8.9 | 
O=C(c1ccc(OCCN2CCCC2=O)cc1)c1c(-c2ccc(O)cc2)sc2cc(O)ccc12 [Compound 6] |  | 33.6% | 52.4% | 67.5% | -9% | 15.4% | 40.3* % | 3.6 | 1.4 | 3.7 | 
COc1ccc(-c2sc3cc(OC)ccc3c2C(=O)c2ccc(OCC(=O)N3CCCCC3)cc2)cc1 [Compound 7] |  |  |  |  | -0.5% | -16.2% | 8.4% | 5.2 | 3.7 | 4.7 | 
O=C(c1ccc(OCC(=O)N2CCCC2)cc1)c1c(-c2ccc(O)cc2)sc2cc(O)ccc12 [Compound 8] | 10 nM |  |  |  |  |  |  | 3.6 and 4.4 | 6.1 and 3.7 |  | Serum Cholesterol (% dec. OVX) (serum cholesterol; Dose 0.1 mg/kg): 25.8%; Serum Cholesterol (% dec. OVX) (serum cholesterol; Dose 1 mg/kg): 69.6* % and 39.4* %; Serum Cholesterol (% dec. OVX) (serum cholesterol; Dose 10 mg/kg): 64.5* %; Uterine EPO (Vmax) ([2]; Dose 0.01 mg/kg): 3.5
O=C(c1ccc(OCC(=O)N2CCCCC2)cc1)c1c(-c2ccc(O)cc2)sc2cc(O)ccc12 [Compound 9] | 10 nM | 4.2% | 22% | 74.3% | -10.0% | 6.5% | 51.7* % | 2.8 | 3.6 | 32 | 
CCCCN(C)C(=O)COc1ccc(C(=O)c2c(-c3ccc(O)cc3)sc3cc(O)ccc23)cc1 [Compound 10] | 50 nM | -40% | 19.1% | 67.1% | 1.5% | -6.7% | 38.0* % | 4.3 | 3.1 | 17.0 | 
CN(C)C(=O)COc1ccc(C(=O)c2c(-c3ccc(O)cc3)sc3cc(O)ccc23)cc1 [Compound 12] |  | 27.8% | 48.2% | 71.2% | -7.7% | 15.4% | 60.7* % | 3.7 | 6.7 | 122.3* | 
O=C(c1ccc(OCCN2C(=O)CCC2=O)cc1)c1c(-c2ccc(O)cc2)sc2cc(O)ccc12 [Compound 13] | > 1000 nM | 37.6% | 12.6% | 30.1% | 22.2% | 7.2% | -4.0% | 1.9 | 1.7 | 2.5 | 
N#CCOc1ccc(C(=O)c2c(-c3ccc(O)cc3)sc3cc(O)ccc23)cc1 [Compound 14] | 0.05 nM | 3.3% | 23.7% |  | 18.8% | 14.6% |  | 3.3 | 2.4 |  | 
CC(C#N)Oc1ccc(C(=O)c2c(-c3ccc(O)cc3)sc3cc(O)ccc23)cc1 (centres unmarked) [Compound 16] | 0.02 nM |  |  |  |  |  |  | 2.3 | 3.9 | 23.4 | 
O=C(NCCOc1ccc(C(=O)c2c(-c3ccc(O)cc3)sc3cc(O)ccc23)cc1)c1ccccc1 [Compound 18] | 500 nM |  |  |  |  |  |  | 3.2 | 3.6 | 3.6 | 
CC(=O)N(CCOc1ccc(C(=O)c2c(-c3ccc(O)cc3)sc3cc(O)ccc23)cc1)C1CCCCC1 [Compound 19] | 0.1 nM | 14.5% |  |  | 7% |  |  | 5.4 | 3.7 |  | 
O=C(NCCOc1ccc(C(=O)c2c(-c3ccc(O)cc3)sc3cc(O)ccc23)cc1)NC1CCCCC1 [Compound 20] | 0.1 nM | -27.2% | -6% | -15.4% | -29.9% | -27.4% | -32.7% | 3.0 | 2.5 | 2.9 | 
O=C(c1ccc(OCCNC(=O)C2CCCCC2)cc1)c1c(-c2ccc(O)cc2)sc2cc(O)ccc12 [Compound 21] |  |  |  |  |  |  |  | 3.1 | 2.6 | 2.4 | 
CC(C)(C)C(=O)N1CCCCC1COc1ccc(C(=O)c2c(-c3ccc(O)cc3)sc3cc(O)ccc23)cc1 (centres unmarked) [Compound 22] | 0.01 nM |  |  |  |  |  |  |  |  |  | Uterine EPO (Vmax) ([3]; 0.1 mg/kg): 3.5; Uterine EPO (Vmax) ([3]; 1 mg/kg): 20.0; Uterine EPO (Vmax) ([3]; 10 mg/kg): 69.5*
CC(C)(C)C(=O)N1CCC(Oc2ccc(C(=O)c3c(-c4ccc(O)cc4)sc4cc(O)ccc34)cc2)CC1 [Compound 23] | 4 nM | -17.4% | -5.2% |  | -4.3% | 0.8% | 22.3% | 1.6 | 3.8 | 6.7 | 
CC(=O)NCCOc1ccc(C(=O)c2c(-c3ccc(O)cc3)sc3cc(O)ccc23)cc1 [Compound 26] |  | 15.8% |  |  | -17.5% |  |  | 1.3 | 0.7 | 13.6 | 
C#C[C@]1(O)CC[C@H]2[C@@H]3CCc4cc(O)ccc4[C@H]3CC[C@@]21C [ethynyl estradiol, 17α-Ethynyl estradiol, reference compound] |  | 89.6% |  |  |  |  |  | 120.0* |  |  | serum cholesterol (result in words) (serum cholesterol; compared to ovariectomized control animals, four day dosing, EE2 orally at 0.1 mg/Kg/day): caused a decrease in serum cholesterol; tibia density / bone loss (result in words) (tibia density): prevented this loss; uterine weight (result in words) (uterus; rat, in vivo, po, 0.1 mg/kg/day): marked stimulatory action on the uterus; eosinophil infiltration into the uterus (result in words) ([2]; ovariectomized rats, measured by assay of eosinophil peroxidase activity): substantial, expected increase in eosinophil infiltration
